In patent publication US9521850B2 (University of Florida Research Foundation, Incorporated, priority 2012, dated 2016):
In brackets after ≈: the same amount, converted by molar mass.

Legend:
Experiment in all cases: microbe, parasite or virus in culture
Rhizobium etli = type: cell-based
[1] = system: Agrobacterium tumefaciens; type: cell-based
Liberibacter crescens = type: cell-based
Xanthomonas citri = type: cell-based, Xanthomonas citri subsp. citri
Mesorhizobium loti = type: cell-based
Sinorhizobium meliloti = type: cell-based
Bradyrhizobium japonicum = type: cell-based

| SMILES | MBC (Rhizobium etli; 24 hrs) [µg/mL] | MIC (Rhizobium etli; 24 hrs) [µg/mL] | MBC (Rhizobium etli; 120 hrs) [µg/mL] | MIC (Rhizobium etli; 120 hrs) [µg/mL] | MBC [1] [µg/mL] | MIC [1] [µg/mL] | MBC (Liberibacter crescens; 24 h) [µg/mL] | MIC (Liberibacter crescens; 24 h) [µg/mL] | MBC (Liberibacter crescens; 120 h) [µg/mL] | MIC (Liberibacter crescens; 120 h) [µg/mL] | MBC (Xanthomonas citri) [µg/mL] | MIC (Xanthomonas citri) [µg/mL] | MBC (Mesorhizobium loti) [µg/mL] | MIC (Mesorhizobium loti) [µg/mL] | MBC (Sinorhizobium meliloti) [µg/mL] | MIC (Sinorhizobium meliloti) [µg/mL] | MBC (Bradyrhizobium japonicum; 24 hrs) [µg/mL] | MIC (Bradyrhizobium japonicum; 24 hrs) [µg/mL] | MBC (Bradyrhizobium japonicum; 120 hrs) [µg/mL] | MIC (Bradyrhizobium japonicum; 120 hrs) [µg/mL] |
| --- | --- | --- | --- | --- | --- | --- | --- | --- | --- | --- | --- | --- | --- | --- | --- | --- | --- | --- | --- | --- |
| Nc1c(C(=O)O)sc2nc(-c3ccccc3)cc(-c3ccc(F)cc3)c12 [SA2, 3-Amino-4-(4-fluorophenyl)-6-phenyl-thieno[2,3-b]pyridine-2-carboxylic acid] | 32 (≈ 87.8 µM) | 16 (≈ 43.9 µM) | 64 (≈ 176 µM) | 32 (≈ 87.8 µM) | 64 (≈ 176 µM) | 32 (≈ 87.8 µM) | 16 (≈ 43.9 µM) | 16 (≈ 43.9 µM) | 32 (≈ 87.8 µM) | 32 (≈ 87.8 µM) | 64 (≈ 176 µM) | 32 (≈ 87.8 µM) | 32 (≈ 87.8 µM) | 16 (≈ 43.9 µM) | 32 (≈ 87.8 µM) | 16 (≈ 43.9 µM) | 64 (≈ 176 µM) | 32 (≈ 87.8 µM) | 128 (≈ 351 µM) | 64 (≈ 176 µM) |
| CCOc1ccc(C2Nc3ccc(C(=O)c4ccccc4)cc3NC3=C2C(=O)CCC3)cc1 (centres unmarked) [SA7, 7-Benzoyl-11-(4-ethoxy-phenyl)-2,3,4,5,10,11-hexahydro-1H-dibenzo[b,e] [1,4]diazepin-1-one] | 16 (≈ 36.5 µM) | 16 (≈ 36.5 µM) | 32 (≈ 73 µM) | 32 (≈ 73 µM) | 64 (≈ 146 µM) | 16 (≈ 36.5 µM) | 16 (≈ 36.5 µM) | 16 (≈ 36.5 µM) | 32 (≈ 73 µM) | 32 (≈ 73 µM) | 64 (≈ 146 µM) | 32 (≈ 73 µM) | 32 (≈ 73 µM) | 16 (≈ 36.5 µM) | 32 (≈ 73 µM) | 16 (≈ 36.5 µM) | 32 (≈ 73 µM) | 32 (≈ 73 µM) | 32 (≈ 73 µM) | 32 (≈ 73 µM) |
| COc1ccc(C2Nc3ccc(C(=O)c4ccccc4)cc3NC3=C2C(=O)CC(c2ccccc2)C3)cc1 (centres unmarked) [SA5, 7-Benzoyl-11-(4-methoxy-phenyl)-3-phenyl-2,3,4,5,10,11-hexahydro-1H-dibenzo[b,e] [1,4]diazepin-1-one] | 16 (≈ 32 µM) | 16 (≈ 32 µM) | 32 (≈ 63.9 µM) | 32 (≈ 63.9 µM) | 64 (≈ 128 µM) | 32 (≈ 63.9 µM) | 16 (≈ 32 µM) | 8 (≈ 16 µM) | 32 (≈ 63.9 µM) | 16 (≈ 32 µM) | 128 (≈ 256 µM) | 64 (≈ 128 µM) | 32 (≈ 63.9 µM) | 16 (≈ 32 µM) | 64 (≈ 128 µM) | 32 (≈ 63.9 µM) | 16 (≈ 32 µM) | 16 (≈ 32 µM) | 32 (≈ 63.9 µM) | 32 (≈ 63.9 µM) |
| COc1ccc(N(C(=O)c2ccc(-n3cnnn3)cc2)C2(C(=O)Nc3ccccc3C)CCCCC2)cc1 [SSC11, N-(4-methoxy-phenyl)-N-{1-[(2-methyl-phenyl)carbamoyl]cyclohexyl}-4-(1H-tetrazol-1-yl)benzamide] | 32 (≈ 62.7 µM) | 16 (≈ 31.3 µM) | 64 (≈ 125 µM) | 32 (≈ 62.7 µM) | 128 (≈ 251 µM) | 32 (≈ 62.7 µM) | 16 (≈ 31.3 µM) | 16 (≈ 31.3 µM) | 32 (≈ 62.7 µM) | 32 (≈ 62.7 µM) | 64 (≈ 125 µM) | 32 (≈ 62.7 µM) | 32 (≈ 62.7 µM) | 16 (≈ 31.3 µM) | 64 (≈ 125 µM) | 32 (≈ 62.7 µM) | 16 (≈ 31.3 µM) | 16 (≈ 31.3 µM) | 32 (≈ 62.7 µM) | 32 (≈ 62.7 µM) |
| COc1ccc(NC(=O)C2(N(C(=O)c3ccc(-n4cnnn4)cc3)c3ccc(OC)cc3)CCCCC2)cc1 [SSC8, N-(4-methoxy-phenyl)-N-{1-[(4-methoxy-phenyl)carbamoyl]cyclohexyl}-4-(1H-tetrazol-1-yl)benzamide] | 32 (≈ 60.8 µM) | 16 (≈ 30.4 µM) | 64 (≈ 122 µM) | 32 (≈ 60.8 µM) | 64 (≈ 122 µM) | 32 (≈ 60.8 µM) | 16 (≈ 30.4 µM) | 16 (≈ 30.4 µM) | 32 (≈ 60.8 µM) | 32 (≈ 60.8 µM) | 64 (≈ 122 µM) | 32 (≈ 60.8 µM) | 32 (≈ 60.8 µM) | 16 (≈ 30.4 µM) | 32 (≈ 60.8 µM) | 16 (≈ 30.4 µM) | 16 (≈ 30.4 µM) | 8 (≈ 15.2 µM) | 32 (≈ 60.8 µM) | 16 (≈ 30.4 µM) |
| CC(C)[C@H](NC(=O)c1ccccc1)C(=O)Nc1cccc(-n2cnnn2)c1 [SA3, N-[(2S)-3-Methyl-1-oxo-1-{[3-(1H-tetrazol-1-yl)phenyl]amino}-2-butanyl] benzamide] | 32 (≈ 87.8 µM) | 32 (≈ 87.8 µM) | 64 (≈ 176 µM) | 64 (≈ 176 µM) | 64 (≈ 176 µM) | 32 (≈ 87.8 µM) | 16 (≈ 43.9 µM) | 8 (≈ 22 µM) | 32 (≈ 87.8 µM) | 16 (≈ 43.9 µM) | 128 (≈ 351 µM) | 64 (≈ 176 µM) | 32 (≈ 87.8 µM) | 16 (≈ 43.9 µM) | 64 (≈ 176 µM) | 32 (≈ 87.8 µM) | 32 (≈ 87.8 µM) | 16 (≈ 43.9 µM) | 64 (≈ 176 µM) | 32 (≈ 87.8 µM) |
| Cc1cc([C@H]2Nc3ccc(C(=O)c4ccccc4)cc3NC3=C2C(=O)CC(C)(C)C3)cc(C)c1O [SA9, 11-(4-hydroxy-3,5-dimethyl-phenyl)-3,3-dimethyl-7-(phenyl-carbonyl)-2,3,4,5,10,11-hexahydro-1H-dibenzo[b,e] [1,4]diazepin-1-one] | 16 (≈ 34.3 µM) | 8 (≈ 17.1 µM) | 32 (≈ 68.6 µM) | 16 (≈ 34.3 µM) | 64 (≈ 137 µM) | 32 (≈ 68.6 µM) | 16 (≈ 34.3 µM) | 16 (≈ 34.3 µM) | 64 (≈ 137 µM) | 32 (≈ 68.6 µM) | 64 (≈ 137 µM) | 32 (≈ 68.6 µM) | 32 (≈ 68.6 µM) | 16 (≈ 34.3 µM) | 32 (≈ 68.6 µM) | 16 (≈ 34.3 µM) | 32 (≈ 68.6 µM) | 16 (≈ 34.3 µM) | 64 (≈ 137 µM) | 32 (≈ 68.6 µM) |
